Experimental data reported in article PMC6178189 (Oxidative Medicine and Cellular Longevity, 2018).
Converted amounts (≈) assume the structure as drawn.

Molecular target: T1, rat intestinal α-glucosidase
T1 construct: gene Si; crude saline extract of commercial rat intestinal acetone powder (Sigma-Aldrich); mixed brush-border alpha-glucosidases, not purified
Assay: p-nitrophenol release from pNPG, […] nm
Assay type: biochemical
Settings: 5 mM p-nitrophenyl glucopyranoside (maltose or sucrose also named in method; substrate of the table value not told), 0.1 M phosphate pH 6.9, 37°C, 30 min, crude enzyme

C[C@H]1O[C@H](O[C@H]2[C@H](O)[C@@H](O)[C@@H](O[C@H]3[C@H](O)[C@@H](O)C(O)O[C@@H]3CO)O[C@@H]2CO)[C@H](O)[C@@H](O)[C@@H]1N[C@H]1C=C(CO)[C@@H](O)[C@H](O)[C@H]1O (stereo partly shown) [acarbose]
IC50 (mg/mL) / α-Glucosidase: 1.63 ± 0.10 mg/mL (≈ 2520 µM)
